# Measurements reported in paper PMC9049331, “X-ray crystal structure of the Escherichia coli RadD DNA repair protein bound to ADP reveals a novel zinc ribbon domain” (PLoS ONE, 2022).
# Target: T1, RadD (Escherichia coli, UniProt P33919)
# T1 construct: open reading frame of E. coli radD from plasmid pEAW724, no tag mentioned, expressed in E. coli STL2669 (DE3)
# T1 sequence (P33919 1-586): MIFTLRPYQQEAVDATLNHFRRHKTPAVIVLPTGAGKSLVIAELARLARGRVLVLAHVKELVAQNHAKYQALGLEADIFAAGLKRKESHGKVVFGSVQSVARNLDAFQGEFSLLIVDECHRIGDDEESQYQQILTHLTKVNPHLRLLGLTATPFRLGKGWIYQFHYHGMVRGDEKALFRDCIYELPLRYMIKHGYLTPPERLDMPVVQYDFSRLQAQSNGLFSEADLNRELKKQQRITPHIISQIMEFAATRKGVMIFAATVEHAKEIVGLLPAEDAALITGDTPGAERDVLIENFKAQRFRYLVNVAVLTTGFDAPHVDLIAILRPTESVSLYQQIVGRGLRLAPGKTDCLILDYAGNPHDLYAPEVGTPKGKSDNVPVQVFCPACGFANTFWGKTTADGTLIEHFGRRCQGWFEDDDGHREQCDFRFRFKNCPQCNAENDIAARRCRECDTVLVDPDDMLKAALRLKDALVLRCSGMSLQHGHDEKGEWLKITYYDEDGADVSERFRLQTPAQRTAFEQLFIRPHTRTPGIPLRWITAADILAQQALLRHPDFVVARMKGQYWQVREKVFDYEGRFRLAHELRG
# Assay: X-ray crystal structure, […] A
# Assay type: binding
# Settings: crystallised with 1 mM ATPgammaS, ADP presumed from slow hydrolysis; Mg2+; pH 7.7; 4 C; ATPase site
smiles,measurement,value
Nc1ncnc2c1ncn2[C@@H]1O[C@H](COP(=O)(O)OP(=O)(O)O)[C@@H](O)[C@H]1O [ADP],"X-ray crystal structure, 2.03 A",ADP was modelled in the RadD active site
